Among the test systems are MOLT-4; SF-268; CCRF-CEM; LOX IMVI; OVCAR-8; HL-60; LXFL 529; HCC 2998; UACC-257; HOP-62; OVCAR-5; SF-539; SK-MEL-28; SK-OV-3; T47D; SR; SN12C; HCT-15; Hs-578T; CAKI-1.
Holding throughout (assay): inhibition of tumour cell growth, NCI panel, 48 h

The results in this text go back to ChEMBL document CHEMBL1201862, “PubChem BioAssay data set” (2004).

The structures appear in SMILES notation.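 96-well plates; 48 h exposure; 5 concentrations. Endpoints by linear interpolation between flanking doses. Not reached: highest tested concentration assigned. GI50: concentration for 50% inhibition of growth.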 The source made the active and inactive calls. No stated cut-off is given here; in the data, active = GI50 up to about 1.1 µM and inactive = higher. Bounds are passed on as bounds.

For the compound `C/C(CC(=O)Nc1cccc([N+](=O)[O-])c1)=N\NC(=O)CC#N`, the GI50 in the assay with MOLT-4, with SF-268, with CCRF-CEM, in the assay with LOX IMVI, in the assay with OVCAR-8 and in the assay with HL-60 was > 100 µM (inactive) in each case. The GI50 in the assay on LXFL 529, with HCC 2998, in the assay with UACC-257, in the assay with HOP-62, in the assay on OVCAR-5 and in the assay on SF-539 was > 100 µM (inactive) each time. Besides, the GI50 with SK-MEL-28 and with SK-OV-3 was > 100 µM (inactive) in each case.
Consider `C/C(=N/NC(=S)N1CCCCCC1)c1ccccc1O`, for which the GI50 is 2.26 µM (inactive) with MOLT-4; 7.6 µM (inactive) in the assay on T47D; 3.03 µM (inactive) with SF-268; 0.492 µM (active) in the assay with SR; 4.63 µM (inactive) in the assay with SN12C; 0.792 µM (active) with CCRF-CEM. Further, the GI50 in the assay on LOX IMVI is 2.07 µM (inactive); with OVCAR-8, 2.81 µM (inactive); with HCT-15, 1.26 µM; in the assay on HL-60, 2.25 µM (inactive); in the assay with Hs-578T, > 100 µM (inactive); in the assay on HCC 2998 it was 7.4 µM (inactive). Moreover, the GI50 with UACC-257 was 4.6 µM (inactive); with HOP-62 it was 1.99 µM (inactive); in the assay on OVCAR-5 it was 12.7 µM (inactive); in the assay on SF-539 it was 3.86 µM (inactive); in the assay with SK-MEL-28, 8.36 µM (inactive); in the assay with SK-OV-3, 12.7 µM (inactive). The GI50 in the assay with CAKI-1 was 8.05 µM (inactive).
In the case of `COc1ccc(-c2nc(Sc3c([N+](=O)[O-])ncn3C)n[nH]2)cc1`, the GI50 was 2.85 µM (inactive) in the assay with MOLT-4; 3.94 µM (inactive) in the assay on SF-268; 3.23 µM (inactive) with SR; 2.64 µM (inactive) in the assay on SN12C; 2.89 µM (inactive) with CCRF-CEM; 2.72 µM (inactive) with LOX IMVI. For the same compound, the GI50 with OVCAR-8 was 2.44 µM (inactive); with LXFL 529, 3.12 µM (inactive); in the assay with HCC 2998, 8.87 µM (inactive); with UACC-257, 3.48 µM (inactive); with HOP-62 it was 19.1 µM (inactive); in the assay on OVCAR-5, 21 µM (inactive). The GI50 was 1.87 µM (inactive) in the assay on SF-539, 4.21 µM (inactive) in the assay with SK-MEL-28, 4.17 µM (inactive) in the assay with SK-OV-3 and 4.35 µM (inactive) in the assay on CAKI-1.
For `Cc1ccccc1NC(=O)C1C(=O)N(c2ccccc2C)C(=O)/C1=N\NC(N)=S` (stereo not drawn), the GI50 in the assay with MOLT-4, with SF-268, in the assay on SR, in the assay with SN12C, with CCRF-CEM and in the assay on LOX IMVI was > 100 µM (inactive) throughout. Further, the GI50 in the assay with HL-60, with LXFL 529, with UACC-257, in the assay on SF-539, with SK-MEL-28 and in the assay on SK-OV-3 was > 100 µM (inactive) in each case. Further, in the assay with CAKI-1, the GI50 was > 100 µM (inactive).
Consider `O=C(Cn1ccnc1[N+](=O)[O-])c1ccc(F)cc1`, for which the GI50 in the assay on MOLT-4, in the assay on SF-268, in the assay on SN12C, with CCRF-CEM, with LOX IMVI and with OVCAR-8 was > 100 µM (inactive) in each case. Further, the GI50 was above 100 µM with HCT-15; > 100 µM (inactive) in the assay with HL-60; > 100 µM (inactive) in the assay with LXFL 529; > 100 µM (inactive) in the assay on UACC-257; > 100 µM (inactive) in the assay with HOP-62; > 100 µM (inactive) with OVCAR-5. For the same compound, the GI50 with SF-539, with SK-MEL-28, in the assay with SK-OV-3 and in the assay with CAKI-1 was > 100 µM (inactive) throughout.
For the compound `Cc1cc(O)c(C(=O)O)c2c1C(=O)c1c(O)c(OCC(O)C(O)C(O)C(O)CO)c(O)c(O)c1C2=O.NCCNCCO` (stereo not drawn), the GI50 in the assay on MOLT-4, in the assay with SF-268, in the assay with SN12C, in the assay on CCRF-CEM, in the assay with LOX IMVI and with OVCAR-8 was > 100 µM (inactive) each time. Besides, the GI50 in the assay with HCT-15 was above 100 µM; with LXFL 529, > 100 µM (inactive); in the assay on HCC 2998 it was > 100 µM (inactive); in the assay with UACC-257, > 100 µM (inactive); with HOP-62, > 100 µM (inactive); in the assay on OVCAR-5, > 100 µM (inactive). The GI50 in the assay with SF-539, with SK-MEL-28, in the assay on SK-OV-3 and in the assay with CAKI-1 was > 100 µM (inactive) throughout.
Turning to `COC(=O)C1(c2ccc(OC)cc2)NC(c2ccccc2)C2C(=O)N(c3ccc(OC)cc3)C(=O)C21` (stereo not drawn), the GI50 in the assay with MOLT-4, in the assay on SF-268, with SN12C, in the assay with CCRF-CEM, in the assay with LOX IMVI and in the assay on OVCAR-8 was > 100 µM (inactive) throughout. Further, the GI50 with HCT-15 is above 100 µM; with HL-60, > 100 µM (inactive); in the assay with LXFL 529, > 100 µM (inactive); with HCC 2998, > 100 µM (inactive); in the assay with UACC-257, > 100 µM (inactive); in the assay on OVCAR-5 it was > 100 µM (inactive). Besides, the GI50 in the assay on SF-539, with SK-MEL-28, with SK-OV-3 and with CAKI-1 was > 100 µM (inactive) throughout.
Take `CCOC(=O)[C@H]1Nc2ccc(C)cc2C2c3ccccc3CC21` (stereo partly drawn): the GI50 with MOLT-4, in the assay with SF-268, in the assay with SR, in the assay on SN12C, in the assay with LOX IMVI and with OVCAR-8 was > 100 µM (inactive) throughout. The GI50 with HCT-15 was above 100 µM; in the assay on LXFL 529 it was > 100 µM (inactive); with HCC 2998 it was > 100 µM (inactive); with UACC-257 it was 30.6 µM (inactive); in the assay with HOP-62 it was > 100 µM (inactive); in the assay with OVCAR-5 it was > 100 µM (inactive). Also, the GI50 in the assay with SF-539, in the assay on SK-MEL-28 and in the assay with CAKI-1 was > 100 µM (inactive) each time.
Take `OC12CCC3(O)c4ccccc4C3C1c1ccccc12` (stereo not drawn): the GI50 in the assay with MOLT-4, in the assay with SF-268, in the assay with SR, in the assay with SN12C, with CCRF-CEM and in the assay with LOX IMVI was > 100 µM (inactive) each time. Besides, the GI50 in the assay on OVCAR-8 is > 100 µM (inactive); with HCT-15, above 100 µM; in the assay on HL-60, > 100 µM (inactive); in the assay with LXFL 529, > 100 µM (inactive); in the assay with UACC-257 it was > 100 µM (inactive); in the assay with HOP-62, > 100 µM (inactive). For the same compound, the GI50 in the assay with SK-MEL-28 and in the assay on SK-OV-3 was > 100 µM (inactive) each time.
Turning to `Nc1cc[nH]c(=O)n1`, the GI50 with SF-268 is > 100 µM (inactive); with SN12C it was > 100 µM (inactive); in the assay on CCRF-CEM, > 100 µM (inactive); in the assay with LOX IMVI, > 100 µM (inactive); in the assay with OVCAR-8 it was > 100 µM (inactive); with HCT-15, above 100 µM. The GI50 in the assay on HL-60, with LXFL 529, with UACC-257, in the assay on HOP-62, in the assay on OVCAR-5 and in the assay on SF-539 was > 100 µM (inactive) throughout. For the same compound, the GI50 with SK-MEL-28, in the assay with SK-OV-3 and in the assay on CAKI-1 was > 100 µM (inactive) throughout.
`CC(=O)OC1CC[C@@]2(C)C(CC(OC3OC(CO)C(O)C(O)C3O)[C@]3(C)C2CCC24CC23CC[C@H]4C(C)CC(O)[C@@H](O)C(C)(C)O)C1(C)C` (stereo partly drawn): the GI50 is 11.4 µM (inactive) in the assay with MOLT-4; 18.4 µM (inactive) in the assay with SF-268; 12.7 µM (inactive) in the assay on SN12C; 11.4 µM (inactive) with CCRF-CEM; 8.61 µM (inactive) with LOX IMVI; 19.9 µM (inactive) with OVCAR-8. For the same compound, the GI50 with HCT-15 was above 50 µM; in the assay on HL-60, 11.6 µM (inactive); with LXFL 529, 8.99 µM (inactive); with HCC 2998, 11.7 µM (inactive); in the assay on UACC-257, 11.7 µM (inactive); in the assay with HOP-62, 18.6 µM (inactive). Besides, the GI50 in the assay with OVCAR-5 is > 50 µM (inactive); in the assay on SF-539, 10.3 µM (inactive); in the assay with SK-MEL-28 it was 9.77 µM (inactive); in the assay with SK-OV-3 it was > 50 µM (inactive); in the assay on CAKI-1, 41.7 µM (inactive).
In the case of `COc1cccc(OC)c1C(=O)OCc1ccccc1`, the GI50 in the assay on MOLT-4, in the assay with SF-268, with SR, with SN12C, in the assay on CCRF-CEM and in the assay with OVCAR-8 was > 100 µM (inactive) each time. The GI50 is above 100 µM in the assay with HCT-15; > 100 µM (inactive) with HL-60; > 100 µM (inactive) in the assay on LXFL 529; > 100 µM (inactive) in the assay on UACC-257; > 100 µM (inactive) with HOP-62; > 100 µM (inactive) in the assay with SF-539. The GI50 in the assay on SK-MEL-28, in the assay with SK-OV-3 and with CAKI-1 was > 100 µM (inactive) throughout.
Turning to `c1ccc2c(c1)[nH]c1c2ncc2[nH]c3ccccc3c21`, the GI50 was 3.05 µM (inactive) in the assay with MOLT-4; 6.32 µM (inactive) in the assay on SF-268; 3.51 µM (inactive) in the assay with SN12C; 3.03 µM (inactive) in the assay on CCRF-CEM; 1.94 µM (inactive) with LOX IMVI; 3.23 µM (inactive) in the assay with OVCAR-8. Moreover, the GI50 with HCT-15 is 2.25 µM; in the assay on HL-60 it was 2 µM (inactive); with LXFL 529 it was 3.64 µM (inactive); with HCC 2998 it was 2.64 µM (inactive); with UACC-257 it was > 10 µM (inactive); in the assay with HOP-62, 4.31 µM (inactive). The GI50 in the assay on OVCAR-5 was 10.9 µM (inactive); in the assay on SF-539, 2.61 µM (inactive); in the assay with SK-MEL-28, 11.7 µM (inactive); with SK-OV-3 it was 14.1 µM (inactive); with CAKI-1, 3.73 µM (inactive).
